According to ChEMBL document CHEMBL3132756, “Synthesis, structureactivity relationships and stereochemical investigations of new tricyclic pyridazinone derivatives as potential STAT3 inhibitors” (Medchemcomm, 2013):
Calls of active or inactive are those of the source. No cut-off for these calls is given here.

These molecules were tested against Signal transducer and activator of transcription 3 (Homo sapiens) (UniProt P40763) (assay: Inhibition of STAT3 (unknown origin) expressed in human HCT116 cells at 2 uM by dual luciferase assay). Conditions: HCT-116.
Sequence of Signal transducer and activator of transcription 3 (Homo sapiens) (P40763 whole entry, the tested form may be a part): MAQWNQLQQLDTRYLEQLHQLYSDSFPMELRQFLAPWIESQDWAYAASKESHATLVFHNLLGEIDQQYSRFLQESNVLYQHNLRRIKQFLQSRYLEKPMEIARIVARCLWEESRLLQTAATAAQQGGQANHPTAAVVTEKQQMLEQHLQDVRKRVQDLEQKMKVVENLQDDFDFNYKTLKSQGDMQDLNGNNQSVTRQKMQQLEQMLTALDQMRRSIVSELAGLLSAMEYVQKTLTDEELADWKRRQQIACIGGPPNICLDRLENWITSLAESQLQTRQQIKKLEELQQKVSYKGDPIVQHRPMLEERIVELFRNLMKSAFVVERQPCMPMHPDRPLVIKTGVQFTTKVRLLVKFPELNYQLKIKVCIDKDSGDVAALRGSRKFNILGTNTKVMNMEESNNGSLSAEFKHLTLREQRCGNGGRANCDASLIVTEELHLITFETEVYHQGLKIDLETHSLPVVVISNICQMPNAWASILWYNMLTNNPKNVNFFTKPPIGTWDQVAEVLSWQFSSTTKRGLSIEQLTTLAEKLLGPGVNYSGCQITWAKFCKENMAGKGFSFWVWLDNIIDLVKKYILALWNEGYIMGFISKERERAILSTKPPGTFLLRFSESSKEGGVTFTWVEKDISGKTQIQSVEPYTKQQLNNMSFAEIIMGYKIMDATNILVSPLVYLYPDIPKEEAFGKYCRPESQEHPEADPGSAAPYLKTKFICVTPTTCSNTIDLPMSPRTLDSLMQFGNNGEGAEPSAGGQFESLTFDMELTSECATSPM
Type: cell-based

Row | Compound | inhibition [%]
1 | CCOC(=O)CCCCCCN1N=C2c3ccccc3CCC2CC1=O (stereo unspecified) | 22
2 | CCOC(=O)CCCN1N=C2c3ccccc3CCC2CC1=O (racemic) | 46
3 | CCOC(=O)CCCn1nc2c(cc1=O)CCc1ccccc1-2 | 1
4 | CCOC(=O)CN1N=C2c3ccccc3CCC2CC1=O (stereo unspecified) | 3
5 | CCOC(=O)CCCCN1N=C2c3ccccc3CCC2CC1=O (stereo unspecified) | 21
6 | CCOC(=O)CCCN1N=C2c3cc(OC)cc(OC)c3CCC2CC1=O (stereo unspecified) | 23
7 | CCOC(=O)CCN1N=C2c3ccccc3CCC2CC1=O (stereo unspecified) | 30
8 | CCOC(=O)CCCN1N=C2c3ccc(Cl)cc3CCC2CC1=O (stereo unspecified) | 9
9 | O=C1CC2CCc3ccccc3C2=NN1CCCc1nn[nH]n1 (stereo unspecified) | -9
10 | C[C@H]1COC2=C1C(=O)C(=O)c1c2ccc2c1CCCC2(C)C | 25
11 | CCOC(=O)CCCCCN1N=C2c3ccccc3CCC2CC1=O (stereo unspecified) | 25
12 | O=C1CC2CCc3ccccc3C2=NN1 (stereo unspecified) | -6
13 | CCCCCN1N=C2c3ccccc3CCC2CC1=O (stereo unspecified) | 22
14 | O=C(O)CCN1N=C2c3ccccc3CCC2CC1=O (stereo unspecified) | -2
15 | CCOC(=O)CCCN1N=C2c3ccccc3CC2CC1=O (stereo unspecified) | 28
16 | CCNCCCCN1N=C2c3ccccc3CCC2CC1=O (stereo unspecified) | 3
17 | CCCCN1N=C2c3ccccc3CCC2CC1=O (stereo unspecified) | -9
18 | O=C(O)CCCN1N=C2c3ccccc3CCC2CC1=O (stereo unspecified) | 8
19 | CCNC(=O)CCCN1N=C2c3ccccc3CCC2CC1=O (stereo unspecified) | 16

These molecules were tested against Signal transducer and activator of transcription 3 (Homo sapiens) (UniProt P40763) (assay: Binding affinity to STAT3 SH2 domain (unknown origin) pre-incubated 15 mins before (FITC)-GpYLPQTV probe and measured after 90 mins by Alpha screen assay). Conditions: not given.

Row | Compound | Activity
20 | CCOC(=O)CCCN1N=C2c3ccccc3CCC2CC1=O (racemic) | inactive

What follows are molecules tested against Signal transducer and activator of transcription 3 (Homo sapiens) (UniProt P40763) (assay: Inhibition of STAT3 (unknown origin) expressed in human HCT116 cells at 10 uM by dual luciferase assay relative to (+) enantiomer). Conditions: HCT-116.
Type: cell-based

Row | Compound | fold change (FC)
21 | CCOC(=O)CCCN1N=C2c3ccccc3CC[C@H]2CC1=O | 2
